Data taken from ChEMBL document CHEMBL1201862, “PubChem BioAssay data set” (2004).
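Test compounds were applied to cells in 96-well plates for 48 hours at 5 doses. At the GI50, growth is halved.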 Activity calls are given as the source filed them. No stated cut-off is given here; in the data, active = GI50 up to about 1.1 µM and inactive = higher.

Columns and labels:
Assay in all cases: growth of human tumour cells (NCI), 48 h
DMS-273 = test system: DMS-273
HOP-18 = test system: HOP-18
KM-20L2 = test system: KM-20L2
LXFL 529 = test system: LXFL 529
M19-MEL = test system: M19-MEL
RXF 631 = test system: RXF 631
SNB-78 = test system: SNB-78
XF498 = test system: XF498
BT-549 = test system: BT-549

Row | SMILES | GI50 (DMS-273) | GI50 (HOP-18) | GI50 (KM-20L2) | GI50 (LXFL 529) | GI50 (M19-MEL) | GI50 (RXF 631) | GI50 (SNB-78) | GI50 (XF498) | GI50 (BT-549)
1 | CC(=O)Oc1c(C)n(CCCl)ccc1=O | > 100 µM (inactive) | > 100 µM (inactive) | 57.7 µM (inactive) | > 100 µM (inactive) | > 100 µM (inactive) | 59.4 µM (inactive) | > 100 µM (inactive) | > 100 µM (inactive) | –
2 | FC1OC2OC1C(OCc1ccccc1)C(OCc1ccccc1)C2OCc1ccccc1 (stereo not given) | > 100 µM (inactive) | 24.3 µM (inactive) | 42.8 µM (inactive) | 34 µM (inactive) | 29.8 µM (inactive) | 71.1 µM (inactive) | 61.1 µM (inactive) | 23.6 µM (inactive) | –
3 | COc1cccc2c1[C@H]1CO[C@H]3C4C[C@H](C(=O)O)C([C@@H](C2)N13)N4C (stereo not given in full) | 3.6 µM (inactive) | 6.12 µM (inactive) | 3.24 µM (inactive) | 2.27 µM (inactive) | 3.64 µM (inactive) | > 10 µM (inactive) | 3.72 µM (inactive) | 2.08 µM (inactive) | 0.116 µM (active)
4 | Nc1nc(CC2(O)CCCCC2)cc(-c2ccccc2)n1 | > 44.9 µM (inactive) | 35.5 µM (inactive) | 17.5 µM (inactive) | > 66.7 µM (inactive) | 28.1 µM (inactive) | 34.4 µM (inactive) | > 48.6 µM (inactive) | – | –
5 | CC#C[C@@]1(O)CCCCC1O (stereo not given in full) | > 100 µM (inactive) | > 100 µM (inactive) | > 100 µM (inactive) | – | > 100 µM (inactive) | > 100 µM (inactive) | > 100 µM (inactive) | > 100 µM (inactive) | –
6 | CC(=O)[C@@]1(O)CC[C@H]2[C@@H]3C[C@H](C)C4=CC(=O)C=C[C@]4(C)[C@@]3(F)[C@@H](O)C[C@@]21C [FLUOROMETHOLONE] | > 100 µM (inactive) | – | > 100 µM (inactive) | > 100 µM (inactive) | > 100 µM (inactive) | > 100 µM (inactive) | > 100 µM (inactive) | > 53.5 µM (inactive) | > 100 µM (inactive)
7 | O=C1COc2cc3c(cc2N1)SCCC(=O)N3 | > 100 µM (inactive) | > 100 µM (inactive) | – | > 100 µM (inactive) | > 100 µM (inactive) | > 100 µM (inactive) | – | > 100 µM (inactive) | –
8 | CCc1cccc(C)c1NC(=O)CCc1nnc2s/c(=C\c3cccc4ccccc34)c(=O)n12 | 61.4 µM (inactive) | – | > 100 µM (inactive) | 73.3 µM (inactive) | > 100 µM (inactive) | > 100 µM (inactive) | > 100 µM (inactive) | > 100 µM (inactive) | –
9 | C/C(=N\NC(=[Se])N(C)C)c1ccccn1 | 0.316 µM (active) | 2.1 µM (inactive) | < 0.01 µM (active) | < 0.01 µM (active) | 0.339 µM (active) | < 0.01 µM (active) | 2.97 µM (inactive) | 0.198 µM (active) | 7.31 µM (inactive)
10 | COC(=O)C(C#CCCCCC#CC(NC(=O)OCc1ccccc1)(C(=O)OC)C(F)(F)F)(NC(=O)OCc1ccccc1)C(F)(F)F (stereo not given) | – | > 100 µM (inactive) | > 100 µM (inactive) | > 100 µM (inactive) | > 100 µM (inactive) | > 100 µM (inactive) | > 100 µM (inactive) | – | –
